In general, pIC50 refers to the IC50 on a negative log10 scale, so that one unit is a factor of ten.

SMILES strings stand for the structures. pIC50: −log10 of the molar value. A value given as a limit tells only on which side of the number the result lay.

Results on eleven molecules are retold here after patent US9278981B2, “Compounds and compositions for inhibiting the activity of ABL1, ABL2 and BCR-ABL1” (Novartis AG, priority 2012, dated 2016).

One assay concerns Ba/F3-BCR-ABL1-WT cells. Description: cells. As to conditions: Mus musculus, 48 h, read-out: Ba/F3-BCR-ABL1-WT IC50 [μM].
In assay [1] the target is T1, ABL1 (64-515) (Homo sapiens (Human), UniProt P00519). Description: Radio ABL1 (64-515) assay (radiometric filter-binding). The class given is biochemical.
T1 sequence (P00519 64-515): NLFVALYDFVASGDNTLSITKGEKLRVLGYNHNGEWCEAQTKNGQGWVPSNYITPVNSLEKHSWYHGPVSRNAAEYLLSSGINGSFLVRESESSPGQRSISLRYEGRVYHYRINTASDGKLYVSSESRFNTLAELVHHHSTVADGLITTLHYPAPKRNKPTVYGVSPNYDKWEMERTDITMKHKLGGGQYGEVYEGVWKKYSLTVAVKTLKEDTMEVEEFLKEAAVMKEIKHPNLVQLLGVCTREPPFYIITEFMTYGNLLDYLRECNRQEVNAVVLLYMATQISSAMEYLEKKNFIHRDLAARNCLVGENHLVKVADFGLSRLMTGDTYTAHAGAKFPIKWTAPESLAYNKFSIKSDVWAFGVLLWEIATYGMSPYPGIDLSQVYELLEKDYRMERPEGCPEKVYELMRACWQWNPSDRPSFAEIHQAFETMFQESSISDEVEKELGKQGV
Assay [2] deals with T1, ABL1 (64-515). Description: Caliper ABL1 (64-515) assay (microfluidic mobility shift). The assay is classed as biochemical.
A further assay has as its system BCR-ABL1+KCL-22 cells. Description: Acquired resistance in BCR-ABL1+KCL-22 cells in vitro. The class given is cell-based. The settings on record: cells treated every 3-4 days.

Source text for Ba/F3-BCR-ABL1-WT cells: To generate Ba/F3 cells that depend on BCR-ABL1 expression for growth and survival, Ba/F3 cells were engineered to express BCR-ABL1 using retroviral transduction with a MSCV based retroviral vector containing a p210 BCR-ABL1 expression cassette. […] These cells are referred to as Ba/F3-BCR-ABL-WT.
Ba/F3-BCR-ABL1-WT cells and Ba/F3-BCR-ABL1-T315I cells were maintained in RPMI1640 media with L-glutamine, HEPES (Lonza) and 10% FBS (Gibco).
For each cell line, the cell density was adjusted to 50 000 cells/mL and 50 μL (2500 cells) added per well of a 384-well assay plate.
Test compounds were resuspended in DMSO at a concentration of 10 mM. A serial three-fold dilution of each compound with DMSO was performed in 384-well plates using the Janus Liquid Dispenser (PerkinElmer). Compound was delivered to the assay plates containing 2500 cells in a 50 μL volume via Acoustic delivery from an ATS-100 (EDC).
Cells were incubated at 37° C. in a humidified environment with 5% carbon dioxide for 48 hours. Britelite plus solution (Perkin Elmer) was prepared according to the manufacturer's instructions and 25 μL added to each well of the assay plate. […] The degree of luminescence correlates with the number of cells in each well. The effect of each inhibitor concentration can therefore be calculated and IC50 values generated.

In the case of `O=C(Nc1ccc(OC(F)(F)Cl)cc1)c1cnc(N2CC[C@@H](O)C2)c(-c2cncnc2)c1` [Example 170, (R)—N-(4-(Chlorodifluoromethoxy)phenyl)-6-(3-hydroxypyrrolidin-1-yl)-5-(pyrimidin-5-yl)nicotinamide], in the assay with Ba/F3-BCR-ABL1-WT cells, the IC50 stood at 0.0005 µM.

Consider `O=C(Nc1ccc(C(F)(F)C(F)(F)F)cc1)c1cnc(N2CC[C@@H](O)C2)c(-c2cncnc2)c1` [Example 208, (R)-6-(3-Hydroxypyrrolidin-1-yl)-N-(4-(perfluoroethyl)phenyl)-5-(pyrimidin-5-yl)nicotinamide], for which the results for the pIC50 at ABL1 (64-515) [1] and at ABL1 (64-515) [2] were above 8.52 and 9.22, respectively. For the same molecule, the IC50 with Ba/F3-BCR-ABL1-WT cells came out at 0.0039 µM.

`CC(F)(F)Oc1ccc(NC(=O)c2cnc(N3CC[C@@H](O)C3)c(-c3cncnc3)c2)cc1` [Example 215, (R)—N-(4-(1,1-Difluoroethoxy)phenyl)-6-(3-hydroxypyrrolidin-1-yl)-5-(pyrimidin-5-yl)nicotinamide]: the pIC50 on ABL1 (64-515) [1] is 8.92; on ABL1 (64-515) [2], 8.10. Moreover, the IC50 in the assay on Ba/F3-BCR-ABL1-WT cells was 0.0246 µM.

As to `O=C(Nc1ccc(S(F)(F)(F)(F)F)cc1)c1cnc(N2CC[C@@H](O)C2)c(-c2cncnc2)c1` [Example 216, (R)-6-(3-Hydroxypyrrolidin-1-yl)-5-(pyrimidin-5-yl)-N-(4-(pentafluorosulfanyl)phenyl)nicotinamide], the pIC50 on ABL1 (64-515) [1] is 8.52; on ABL1 (64-515) [2], 9.15. Besides, the IC50 with Ba/F3-BCR-ABL1-WT cells turned out to be 0.0074 µM.

On to `O=C(Nc1ccc(SC(F)(F)Cl)cc1)c1cnc(N2CC[C@@H](O)C2)c(-c2cncc(F)c2)c1` [Example 218, (R)—N-(4-((Chlorodifluoromethyl)thio)phenyl)-5′-fluoro-2-(3-hydroxypyrrolidin-1-yl)-[3,3′-bipyridine]-5-carboxamide], for which the negative logarithm of the IC50 (pIC50) on ABL1 (64-515) [1] was 8.52; at ABL1 (64-515) [2] it was 9.22. Besides, the IC50 with Ba/F3-BCR-ABL1-WT cells amounted to 0.0009 µM.

With `O=C(Nc1ccc(OC(F)(F)Cl)cc1)c1cnc(N2CC[C@@H](CO)[C@@H](O)C2)c(-c2cncnc2)c1` [Example 257], the pIC50 was 8.52 on ABL1 (64-515) [1] and 9.22 at ABL1 (64-515) [2]. In addition, in the assay with Ba/F3-BCR-ABL1-WT cells, the IC50 worked out at 0.0011 µM.

Turning to `N#Cc1cncc(-c2cc(C(=O)Nc3ccc(OC(F)(F)Cl)cc3)cnc2N2C[C@@H](O)[C@@H](O)C2)c1` [Example 268], the figures for the pIC50 on ABL1 (64-515) [1] and at ABL1 (64-515) [2] were 9.30 and 9.40, respectively. For the same molecule, in the assay with Ba/F3-BCR-ABL1-WT cells, the IC50 came out at 0.0032 µM.

Consider `N[C@H]1CN(c2ccc(C(=O)Nc3ccc(OC(F)(F)Cl)cc3)cc2-c2cncc(F)c2)C[C@@H]1O` [Example 285, 4-((3S,4S)-3-Amino-4-hydroxypyrrolidin-1-yl)-N-(4-(chlorodifluoromethoxy)phenyl)-3-(5-fluoropyridin-3-yl)benzamide], for which the pIC50 on ABL1 (64-515) [1] is 9.00; at ABL1 (64-515) [2], 9.22. For the same molecule, in the assay on Ba/F3-BCR-ABL1-WT cells, the IC50 amounted to 0.0053 µM.

For `N#Cc1ccncc1-c1cc(C(=O)Nc2ccc(OC(F)(F)Cl)cc2)cnc1N1C[C@H](O)[C@@H](O)C1` [Example 290, N-(4-(Chlorodifluoromethoxy)phenyl)-4′-cyano-2-((3S,4S)-3,4-dihydroxypyrrolidin-1-yl)-[3,3′-bipyridine]-5-carboxamide], the pIC50 on ABL1 (64-515) [1] was 8.70; at ABL1 (64-515) [2] it was 9.10.

`Cc1ncncc1-c1cc(C(=O)Nc2ccc(OC(F)(F)Cl)cc2)ccc1N1C[C@H](O)[C@@H](O)C1` [Example 297, N-(4-(Chlorodifluoromethoxy)phenyl)-4-((3S,4S)-3,4-dihydroxypyrrolidin-1-yl)-3-(4-methylpyrimidin-5-yl)benzamide]: the pIC50 at ABL1 (64-515) [2] is 8.85. For the same molecule, the IC50 with Ba/F3-BCR-ABL1-WT cells was 0.0013 µM.

Turning to `Cc1cn(-c2cc(NC(=O)c3ccc(C)c(Nc4nccc(-c5cccnc5)n4)c3)cc(C(F)(F)F)c2)cn1` [nilotinib], in the assay on BCR-ABL1+KCL-22 cells, the “time until acquired resistance” value fell in the range of 18 to 21 days.
